Measured values from US20250163009A1, “BENZOTHIA(DIA)ZEPINE COMPOUNDS FOR TREATMENT OF HBV AND HDV” (Assembly Biosciences, Inc., priority 2022, published 2025).

Test system: HBV
Assay: HepG2-NTCP infection protocol, HBeAg quantification by ECL-ELISA
Type: cell-based
Conditions: Hepatitis B virus, HepG2-NTCP cells infected with HBV at MOI 50; compound 24 hours, then 72 hours; HBeAg in supernatant
Method: HepG2 cells expressing the sodium taurocholate cotransporting polypeptide (HepG2-NTCP) were maintained in culture using HepG2-NTCP growth medium (DMEM (HyClone, Cat #SH30243.02) supplemented with 10% FBS, 150 μg/mL G418 (Alfa Aesar, Cat #J62671), 50 U/mL penicillin-streptomycin (Invitrogen, Cat #15140-122), and 0.5 μg/mL blasticidin (Sigma, Cat #15205)). Prior to infection, the cells were washed twice with 1×DPBS (Invitrogen, Cat #14190-136) and treated with 3 mL of 0.05% trypsin (Invitrogen, Cat #25200-056) to dissociate the cells. Following dissociation, 10 mL of HepG2-NTCP growth medium was added to the cells to neutralize the trypsin and the cells were then centrifuged at 1,300 rpm for 5 minutes. Following centrifugation, the cells were resuspended in 10 mL of HepG2-NTCP growth medium, counted, and then centrifuged at 1,300 rpm for 5 minutes. The cell pellet was resuspended in DMEM supplemented with 5% FBS, 50 U/mL penicillin-streptomycin, 4% PEG-8000 (Hamilton Research, Cat #HR2-515), and 1% DMSO (Sigma, Cat #D4540) to a density of 5.6×10^5 cells/mL and infected with HBV at an MOI of 50. Immediately after infection, 90 μL of the cell/HBV mixture was added to a 96-well plate containing 10 μL of compound and incubated at 37° C. for 24 hours (2% final DMSO concentration). After the incubation, the infection media was removed and replaced with DMEM supplemented with 5% FBS, 50 U/mL penicillin-streptomycin, and 1% DMSO and incubated for an additional 72 hours. At the end of the incubation, the plates were spun at 1,800 rpm for 8 minutes and the supernatant was removed for HBeAg quantification using electrochemiluminescence enzyme-linked immunosorbent assays (ECL-ELISA).
To conduct the HBeAg ECL-ELISA, Lumitrack high-binding 96-well plates (Greiner, Cat #655074) were treated with 625 ng/mL HBeAg mAb (Biocheck, Cat #70426) in 1×DPBS for 2 hours at 25° C. with shaking. The HBeAg mAb solution was then removed and the plates treated with 1×DPBS containing 0.5% bovine serum albumin (BSA) (Sigma, Cat #A7030-100 g) for 2 hours at 25° C. with shaking. The HBeAg-coated plates were then washed 4 times with 1×DPBS containing 0.05% Tween 20 (DPBS-T) (Thermo Fisher Scientific, Cat #J61544-K2). Following the wash, 90 μL of HRP-conjugated antibody (Fitzgerald, Cat #61-H10K), diluted 1:8,000 in 1×DPBS-T containing 0.5% BSA, was added to the HBeAg-coated plates along with 10 μL of sample. The plates were then incubated for 2 hours at 25° C. with shaking. Following the incubation, the sample was then removed and 200 μL of 1×PBS-T was added and the plates were incubated for 10 minutes at 25° C. with shaking. The plates were then washed 6 times with 1×PBS-T and blotted dry. 80 μL of ECL substrate (Millipore, Cat #WBKLS0500) was then added to the plate and the luminescence was measured using a Tecan M1000 Pro plate reader.

`CCCCC1CN([C@H]2CC[C@H](OC)CC2)c2cc(SC)c(O/C=C(\F)C(=O)O)cc2S(=O)(=O)N1C` (stereo partly shown) [Example 56] was tested, and the EC50 was less than 100 nM.
